Source: ChEMBL document CHEMBL1201862, “PubChem BioAssay data set” (2004)
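Exposure lasted 48 hours, with cells grown in 96-well plates and compounds tested at five concentrations. GI50 is the concentration that inhibits growth by half.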 Calls of active or inactive are those of the source. Rule as the data show it: active = GI50 up to about 1.1 µM and inactive = higher.

Tests used:
Experiment in all cases: NCI tumour cell line growth inhibition, 48 h
SW-620 = test system: SW-620
OVCAR-4 = test system: OVCAR-4
786-0 = test system: 786-0
HOP-62 = test system: HOP-62
SK-MEL-2 = test system: SK-MEL-2
HCT-15 = test system: HCT-15
TK-10 = test system: TK-10
SNB-19 = test system: SNB-19
MDA-MB-435 = test system: MDA-MB-435
SF-295 = test system: SF-295
Malme-3M = test system: Malme-3M
KM12 = test system: KM12
SNB-75 = test system: SNB-75
OVCAR-3 = test system: OVCAR-3
A549 = test system: A549
ACHN = test system: ACHN
MDA-N = test system: MDA-N
COLO 205 = test system: COLO 205
PC-3 = test system: PC-3
MDA-MB-231 = test system: MDA-MB-231
UO-31 = test system: UO-31
NCI-H23 = test system: NCI-H23
DU-145 = test system: DU-145
HCC 2998 = test system: HCC 2998
BT-549 = test system: BT-549
CAKI-1 = test system: CAKI-1
CCRF-CEM = test system: CCRF-CEM
HL-60 = test system: HL-60
NCI-H226 = test system: NCI-H226
SR = test system: SR
UACC-257 = test system: UACC-257
A498 = test system: A498
MOLT-4 = test system: MOLT-4
NCI-H460 = test system: NCI-H460
SK-MEL-28 = test system: SK-MEL-28
RPMI-8226 = test system: RPMI-8226
T47D = test system: T47D
Hs-578T = test system: Hs-578T
OVCAR-5 = test system: OVCAR-5
M14 = test system: M14
UACC-62 = test system: UACC-62
OVCAR-8 = test system: OVCAR-8
HOP-92 = test system: HOP-92
RXF 393 = test system: RXF 393
HT-29 = test system: HT-29
SK-MEL-5 = test system: SK-MEL-5
HCT-116 = test system: HCT-116
SN12C = test system: SN12C
SF-539 = test system: SF-539
EKVX = test system: EKVX
MCF7 = test system: MCF7
U-251 = test system: U-251
K562 = test system: K562
NCI/ADR-RES = test system: NCI/ADR-RES
NCI-H522 = test system: NCI-H522
SK-OV-3 = test system: SK-OV-3
SF-268 = test system: SF-268
LOX IMVI = test system: LOX IMVI
IGROV-1 = test system: IGROV-1

O=C(Nc1nc2ccccc2s1)c1cc([N+](=O)[O-])ccc1Cl
GI50 (SW-620): 6.14 µM (inactive) | GI50 (OVCAR-4): 8.39 µM (inactive) | GI50 (786-0): 11.1 µM (inactive) | GI50 (HOP-62): 13.6 µM (inactive) | GI50 (SK-MEL-2): 13.2 µM (inactive) | GI50 (HCT-15): 4.63 µM | GI50 (TK-10): 66.4 µM (inactive) | GI50 (SNB-19): 28.4 µM (inactive) | GI50 (MDA-MB-435): 3.13 µM (inactive) | GI50 (SF-295): 22.3 µM (inactive) | GI50 (Malme-3M): 23.7 µM (inactive) | GI50 (KM12): 3.29 µM (inactive) | GI50 (SNB-75): 13.8 µM (inactive) | GI50 (OVCAR-3): 16.7 µM (inactive) | GI50 (A549): 6.17 µM (inactive) | GI50 (ACHN): 17 µM (inactive) | GI50 (MDA-N): 3.58 µM (inactive) | GI50 (COLO 205): 19.6 µM (inactive) | GI50 (PC-3): 7.24 µM (inactive) | GI50 (MDA-MB-231): > 55.1 µM (inactive) | GI50 (UO-31): 6.76 µM (inactive) | GI50 (NCI-H23): 4.91 µM (inactive) | GI50 (DU-145): 6.84 µM (inactive) | GI50 (HCC 2998): 12.6 µM (inactive) | GI50 (BT-549): 5.92 µM (inactive) | GI50 (CAKI-1): 37.6 µM (inactive) | GI50 (CCRF-CEM): 0.0107 µM (active) | GI50 (HL-60): 1.78 µM (inactive) | GI50 (NCI-H226): 16.9 µM (inactive) | GI50 (SR): 1.54 µM (inactive) | GI50 (UACC-257): 42.2 µM (inactive) | GI50 (A498): > 81.7 µM (inactive) | GI50 (MOLT-4): 2.81 µM (inactive) | GI50 (NCI-H460): 1.91 µM (inactive) | GI50 (SK-MEL-28): > 32.1 µM (inactive) | GI50 (RPMI-8226): 4.81 µM (inactive) | GI50 (T47D): 13.9 µM (inactive) | GI50 (Hs-578T): 2.88 µM (inactive) | GI50 (OVCAR-5): 23 µM (inactive) | GI50 (M14): 8.97 µM (inactive) | GI50 (UACC-62): 7.5 µM (inactive) | GI50 (OVCAR-8): 5 µM (inactive) | GI50 (HOP-92): 5.89 µM (inactive) | GI50 (RXF 393): 2.65 µM (inactive) | GI50 (HT-29): 5.47 µM (inactive) | GI50 (SK-MEL-5): 7.6 µM (inactive) | GI50 (HCT-116): 3.87 µM (inactive) | GI50 (SN12C): 9.59 µM (inactive) | GI50 (SF-539): 4.73 µM (inactive) | GI50 (EKVX): 10.1 µM (inactive) | GI50 (MCF7): 0.91 µM (active) | GI50 (U-251): 6.43 µM (inactive) | GI50 (K562): 3.86 µM (inactive) | GI50 (NCI/ADR-RES): 6.89 µM (inactive) | GI50 (NCI-H522): 3.4 µM (inactive) | GI50 (SK-OV-3): 16 µM (inactive) | GI50 (SF-268): 4.45 µM (inactive) | GI50 (LOX IMVI): 3.44 µM (inactive)

COC(=O)Cc1c2n(c3ccccc13)C(=O)N1c3ccccc3C(CC(=O)OC)C21 (stereo not given)
GI50 (SW-620): > 100 µM (inactive) | GI50 (OVCAR-4): 10.7 µM (inactive) | GI50 (786-0): 13.1 µM (inactive) | GI50 (HOP-62): 17.4 µM (inactive) | GI50 (SK-MEL-2): 38.7 µM (inactive) | GI50 (HCT-15): 69 µM | GI50 (TK-10): 14.9 µM (inactive) | GI50 (SNB-19): 18.1 µM (inactive) | GI50 (MDA-MB-435): > 100 µM (inactive) | GI50 (SF-295): 18.8 µM (inactive) | GI50 (Malme-3M): 81.3 µM (inactive) | GI50 (SNB-75): 7.45 µM (inactive) | GI50 (OVCAR-3): 55.7 µM (inactive) | GI50 (A549): 34.2 µM (inactive) | GI50 (ACHN): 24.4 µM (inactive) | GI50 (IGROV-1): 7.41 µM (inactive) | GI50 (MDA-N): > 100 µM (inactive) | GI50 (COLO 205): 87.3 µM (inactive) | GI50 (PC-3): 51.5 µM (inactive) | GI50 (MDA-MB-231): 17.3 µM (inactive) | GI50 (UO-31): 54.5 µM (inactive) | GI50 (NCI-H23): 15.7 µM (inactive) | GI50 (DU-145): > 100 µM (inactive) | GI50 (HCC 2998): 68.1 µM (inactive) | GI50 (BT-549): 25.5 µM (inactive) | GI50 (CAKI-1): 21.1 µM (inactive) | GI50 (CCRF-CEM): > 100 µM (inactive) | GI50 (HL-60): 3.89 µM (inactive) | GI50 (NCI-H226): > 100 µM (inactive) | GI50 (SR): > 100 µM (inactive) | GI50 (UACC-257): > 100 µM (inactive) | GI50 (A498): 39.9 µM (inactive) | GI50 (MOLT-4): > 100 µM (inactive) | GI50 (NCI-H460): 11.6 µM (inactive) | GI50 (SK-MEL-28): > 100 µM (inactive) | GI50 (RPMI-8226): > 100 µM (inactive) | GI50 (T47D): 76 µM (inactive) | GI50 (Hs-578T): 21.1 µM (inactive) | GI50 (OVCAR-5): 32.9 µM (inactive) | GI50 (UACC-62): 23.5 µM (inactive) | GI50 (OVCAR-8): 31.8 µM (inactive) | GI50 (HOP-92): 9.73 µM (inactive) | GI50 (RXF 393): 21.2 µM (inactive) | GI50 (HT-29): > 100 µM (inactive) | GI50 (SK-MEL-5): 56.2 µM (inactive) | GI50 (HCT-116): 23 µM (inactive) | GI50 (SN12C): > 100 µM (inactive) | GI50 (SF-539): 16.1 µM (inactive) | GI50 (EKVX): 45.3 µM (inactive) | GI50 (MCF7): 59.3 µM (inactive) | GI50 (U-251): 28.3 µM (inactive) | GI50 (K562): > 100 µM (inactive) | GI50 (NCI/ADR-RES): 53.1 µM (inactive) | GI50 (NCI-H522): 62.1 µM (inactive) | GI50 (SK-OV-3): 21.8 µM (inactive) | GI50 (SF-268): 39.5 µM (inactive) | GI50 (LOX IMVI): 63.5 µM (inactive)
